Experimental data as given in EP0235773A1, “Improved pesticide formulations” (Shell Agrar GmbH & Co. KG, priority 1986, dated 1987).
Structures can show the parent of a compound that is named as a salt.

Columns and labels:
[1] = Approximate solubility of solutes in butyrolactone (BLO); type: physicochemical; settings: solvent BLO; approximately 25-30°C
Protocol: In formulating the solutions of chlorflurenol and solvent, it was necessary to agitate the solution in order to dissolve the chlorflurenol in the BLO, M-Pyrol, or BLO/M-PYROL.
From tests conducted, the following approximate solubilities at temperatures of approximately 25-30°C. were determined.
Technical dicamba acid - 86.9% acid equivalent Technical sodium salt of dicamba acid - 76% acid equivalent Technical chlorflurenol methyl ester - 95-98% total methal esters

[2] = cited from earlier work

Row | SMILES | Solubility for acid Equivalent Concentration [1] | water solubility [2]
1 | COC(=O)C1(O)c2ccccc2-c2ccc(Cl)cc21 (stereo not drawn) [Technical chlorflurenol methy ester, chlorflurenol methyl ester] | approximately 25% | 0.0018 grams/100 grams water
2 | COc1c(Cl)ccc(Cl)c1C(=O)O [Technical sodium salt of dicamba] | Less than 1% | 
